In one test the target is T1, human ALX receptor (Homo sapiens, UniProt P25090).
T1 construct: expressed in transfected cells; host or cells: HEK293 (HEK293-hALXR-Gα16)
T1 sequence (P25090 1-351): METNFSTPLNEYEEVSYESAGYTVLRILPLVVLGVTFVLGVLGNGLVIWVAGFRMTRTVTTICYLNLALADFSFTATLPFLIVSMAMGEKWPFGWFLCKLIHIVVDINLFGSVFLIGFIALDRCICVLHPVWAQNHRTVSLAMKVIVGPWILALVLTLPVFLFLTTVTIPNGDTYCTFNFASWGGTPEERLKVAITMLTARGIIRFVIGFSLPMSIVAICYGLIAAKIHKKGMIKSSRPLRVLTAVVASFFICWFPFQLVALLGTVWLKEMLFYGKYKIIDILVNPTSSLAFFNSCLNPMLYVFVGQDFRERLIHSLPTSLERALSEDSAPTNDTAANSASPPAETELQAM
The experiment in a line: Intracellular calcium measurements (FLIPR), agonistic activity in HEK293-hALXR-Gα16 cells. Type of test: cell-based. As to conditions: Fluo-4 calcium FLIPR, normalized to WKYMVm 10 nM. An outline of the steps: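 Agonist-induced calcium flux was recorded by FLIPR (488/540 nm) in HEK293-hALXR-Gα16 cells pre-loaded with Fluo-4 AM (1 μM, 60 min, 37°C). Peak signal above baseline, after subtracting buffer addition, was expressed relative to WKYMVm at 10 nM final.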

For a further test, the target named is T2, human FPRL2 (Homo sapiens, UniProt P25089).
T2 construct: expressed in transfected cells; host or cells: HEK293 (HEK293-hFPRL2-Gα16)
T2 sequence (P25089 1-353): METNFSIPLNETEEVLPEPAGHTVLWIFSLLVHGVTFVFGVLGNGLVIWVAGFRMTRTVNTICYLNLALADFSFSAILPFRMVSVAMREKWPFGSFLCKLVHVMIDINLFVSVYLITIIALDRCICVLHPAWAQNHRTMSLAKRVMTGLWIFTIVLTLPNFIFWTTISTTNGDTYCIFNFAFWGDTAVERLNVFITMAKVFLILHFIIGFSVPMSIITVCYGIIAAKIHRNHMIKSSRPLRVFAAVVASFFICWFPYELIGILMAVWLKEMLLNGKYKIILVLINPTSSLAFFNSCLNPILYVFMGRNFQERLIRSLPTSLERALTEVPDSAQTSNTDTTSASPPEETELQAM
Description: Intracellular calcium measurements (FLIPR), agonistic activity in HEK293-hFPRL2-Gα16 cells. Type of test: cell-based. As to conditions: Fluo-4 calcium FLIPR, normalized to GLY14-Humanin 100 nM. An outline of the steps: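 Peak values after baseline subtraction are expressed relative to 100 nM Gly14-Humanin; compounds diluted in assay buffer from 10 mM DMSO stocks.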

`COc1ccc(CCNC(=O)[C@H]2[C@H](C(=O)NCCCCN3CCCC3)[C@H]3C=C[C@@H]2C32CC2)cc1Br` (racemic) [Example 384, (5R*)—N^5-(2-(3-Bromo-4-methoxyphenyl)ethyl)-(6R*)—N^6-(4-pyrrolidino-butyl)-(4S*,7R*)-[4,7-ethenylene-spiro[2.4]heptane]-5,6-dicarboxamide]: the EC50 was 10300 nM at human ALX receptor and 72 nM at human FPRL2.

`Cc1ccc(CCNC(=O)[C@H]2[C@H](C(=O)NCCCCN3CCCC3)[C@H]3C=C[C@@H]2C32CC2)c(C)c1` (racemic) [Example 385, (5R*)—N^5-(2-(2,4-Dimethylphenyl)ethyl)-(6R*)—N^6-(4-pyrrolidino-butyl)-(4S*,7R*)-[4,7-ethenylene-spiro[2.4]heptane]-5,6-dicarboxamide]: the EC50 was more than 25000 nM on human ALX receptor and 27 nM at human FPRL2.

As for `CNCCNC(=O)[C@H]1[C@H](C(=O)NCc2nc(C(C)=O)cs2)[C@@H]2C=C[C@H]1C21CC1` (racemic) [Example 396, (5R*)—N^5-[(4-Acetyl-thiazol-2-yl)methyl]-(6R*)—N^6-(2-methylamino-ethyl)-(4S*,7R*)-[4,7-ethenylene-spiro[2.4]heptane]-5,6-dicarboxamide], the EC50 is 1040 nM at human ALX receptor and 872 nM at human FPRL2.

On to `O=C(NCCCCN1CCCC1)[C@H]1[C@H](C(=O)Nc2ccc(C(F)(F)F)nc2)[C@@H]2C=C[C@H]1C21CC1` (racemic) [Example 422, (5R*)—N^5-(2-Trifluoromethyl-pyridin-5-yl)-(6R*)—N^6-(4-pyrrolidin-1-yl-butyl)-(4S*,7R*)-[4,7-ethenylene-spiro[2.4]heptane]-5,6-dicarboxamide], for which the EC50 at human ALX receptor was 11 nM; on human FPRL2, 99 nM.

`NCCCCNC(=O)[C@H]1[C@H](C(=O)Nc2ccc(Br)cc2)[C@@H]2C=C[C@H]1C21CC1` (relative stereo) [Example 5, (5R*)—N^5-(4-Bromophenyl)-(6R*)—N^6-(4-amino-butyl)-(4S*,7R*)-[4,7-ethenylene-spiro[2.4]heptane]-5,6-dicarboxamide]: the EC50 is 0.34 nM at human ALX receptor and 1160 nM at human FPRL2.

With `Cc1nc(CCNC(=O)[C@H]2[C@H](C(=O)Nc3ccc(Br)cc3)[C@@H]3C=C[C@H]2C32CC2)[nH]c1C` (relative stereo) [Example 64, (5R*)—N^5-(4-Bromophenyl)-(6R*)—N^6-(2-(4,5-dimethyl-1H-imidazol-2-yl)-ethyl)-(4S*,7R*)-[4,7-ethenylene-spiro[2.4]heptane]-5,6-dicarboxamide], the concentration for a half-maximal effect (EC50) on human ALX receptor was 19 nM; at human FPRL2 it was 68 nM.

Take `CCCCNC(=O)[C@H]1[C@H](C(=O)Nc2ccc(Br)cc2)[C@@H]2C=C[C@H]1C21CC1` (relative stereo) [Example 74, (5R*)—N^5-(4-Bromophenyl)-(6R*)—N^6-(butyl)-(4S*,7R*)-[4,7-ethenylene-spiro[2.4]heptane]-5,6-dicarboxamide]: the EC50 was 72 nM at human ALX receptor and 18200 nM on human FPRL2.

Regarding `Cc1nc(CCNC(=O)[C@H]2[C@H](C(=O)Nc3ccc(Br)cc3)[C@H]3C=C[C@@H]2C32CC2)[nH]c1C` (relative stereo) [Example 199, (5R*)—N^5-(2-(4,5-Dimethyl-1H-imidazol-2-yl)-ethyl)-(6R*)—N^6-(4-bromophenyl)-(4S*,7R*)-[4,7-ethenylene-spiro[2.4]heptane]-5,6-dicarboxamide], the EC50 is 77 nM at human ALX receptor and 7.4 nM on human FPRL2.

Regarding `NCCCCNC(=O)[C@H]1[C@H](C(=O)Nc2ccc(Br)cc2)[C@H]2C=C[C@@H]1C21CC1` (relative stereo) [Example 339, (5R*)—N^5-(4-Aminobutyl)-(6R*)—N^6-(4-bromophenyl)-(4S*,7R*)-[4,7-ethenylene-spiro[2.4]heptane]-5,6-dicarboxamide], the values for the EC50 on human ALX receptor and at human FPRL2 were 19 nM and 1480 nM, respectively.

For the molecule `NCCCCCNC(=O)[C@H]1[C@H](C(=O)Nc2ccc(Br)cc2)[C@H]2C=C[C@@H]1C21CC1` (relative stereo) [Example 340, (5R*)—N^5-(5-Aminopentyl)-(6R*)—N^6-(4-bromophenyl)-(4S*,7R*)-[4,7-ethenylene-spiro[2.4]heptane]-5,6-dicarboxamide], the values for the EC50 at human ALX receptor and at human FPRL2 were 30 nM and 255 nM, respectively.

On to `O=C(Nc1ccc(Br)cc1)C1C(C(=O)NC2CCC(CN3CCCC3)CC2)C2C=CC1C21CC1` (single isomer, unassigned) [Example 218], for which the EC50 turned out to be 2.1 nM at human ALX receptor and 356 nM on human FPRL2.

For the molecule `O=C(Nc1ccc(Br)cc1)C1C(C(=O)NC2CCC(CN3CCCC3)CC2)C2C=CC1C21CC1` (single isomer, unassigned) [Example 222], the results for the concentration for a half-maximal effect (EC50) on human ALX receptor and at human FPRL2 were 208 nM and 398 nM, respectively.

As to `O=C(Nc1ncc(Br)s1)C1C(C(=O)NC2CCC(CO)CC2)C2CCC1C21CC1` (single isomer, unassigned) [Example 410], the EC50 at human ALX receptor is 855 nM; on human FPRL2 it was 18200 nM.

Turning to `O=C(Nc1ncc(Br)s1)C1C(C(=O)NC2CCC(CO)CC2)C2CCC1C21CC1` (single isomer, unassigned) [Example 411], the EC50 on human ALX receptor came to 61 nM; on human FPRL2, 6520 nM.

Turning to `NCC1CCC(NC(=O)C2C(C(=O)Nc3ccc(Br)cc3)C3C=CC2C32CC2)CC1` (single isomer, unassigned) [Example 420], the EC50 at human ALX receptor came to 0.13 nM; at human FPRL2, 1150 nM.

As for `NCC1CCC(NC(=O)C2C(C(=O)Nc3ccc(Br)cc3)C3C=CC2C32CC2)CC1` (single isomer, unassigned) [Example 421], the EC50 at human ALX receptor turned out to be 13 nM; on human FPRL2, 1700 nM.

For the molecule `NCCCCCNC(=O)C1C(C(=O)Nc2ccc(Br)cc2)C2C=CC1C21CC1` (stereo not drawn) [Example 1, (5R*)—N^5-(4-Bromophenyl)-(6R*)—N^6-(5-amino-pentyl)-(4S*,7R*)-[4,7-ethenylene-spiro[2.4]heptane]-5,6-dicarboxamide], the EC50 on human ALX receptor came to 0.16 nM; on human FPRL2, 571 nM.

In the case of `O=C(NCCCCN1CCCC1)[C@H]1[C@H](C(=O)Nc2ccc(Br)cc2)[C@@H]2C=C[C@H]1C21CC1` [Example 2, (5R)—N^5-(4-Bromophenyl)-(6R)—N^6-(4-pyrrolidin-1-yl-butyl)-(4S,7R)-[4,7-ethenylene-spiro[2.4]heptane]-5,6-dicarboxamide], the results for the half-maximal effective concentration (EC50) on human ALX receptor and on human FPRL2 were 0.1 nM and 46 nM, respectively.

For the molecule `CN(C)CCNC(=O)[C@H]1[C@H](C(=O)Nc2ccc(Br)cc2)[C@@H]2C=C[C@H]1C21CC1` [Example 6, (5R)—N^5-(4-Bromophenyl)-(6R)—N^6-(2-N,N-dimethyl-amino-ethyl)-(4S,7R)-[4,7-ethenylene-spiro[2.4]heptane]-5,6-dicarboxamide], the EC50 stood at 0.41 nM at human ALX receptor and 1260 nM on human FPRL2.

Take `O=C(NCCCO)[C@H]1[C@H](C(=O)Nc2ccc(Br)cc2)[C@@H]2C=C[C@H]1C21CC1` [Example 12, (5R)—N^5-(4-Bromophenyl)-(6R)—N^6-(3-hydroxy-propyl)-(4S,7R)-[4,7-ethenylene-spiro[2.4]heptane]-5,6-dicarboxamide]: the figures for the EC50 at human ALX receptor and at human FPRL2 were 1 nM and 1300 nM, respectively.

For `NC(=O)CCNC(=O)[C@H]1[C@H](C(=O)Nc2ccc(Br)cc2)[C@@H]2C=C[C@H]1C21CC1` [Example 13, (5R)—N^5-(4-Bromophenyl)-(6R)—N^6-(2-carbamoyl-ethyl)-(4S,7R)-[4,7-ethenylene-spiro[2.4]heptane]-5,6-dicarboxamide], the half-maximal effective concentration (EC50) at human ALX receptor turned out to be 1.1 nM; at human FPRL2 it was 4620 nM.

Turning to `CC(C)(C)OC(=O)NCCNC(=O)C1C(C(=O)Nc2ccc(Br)cc2)C2C=CC1C21CC1` (stereo not drawn) [Example 27, (5R*)—N^5-(4-Bromophenyl)-(6R*)—N^6-(2-tert-butoxycarbonyl-amino-ethyl)-(4S*,7R*)-[4,7-ethenylene-spiro[2.4]heptane]-5,6-dicarboxamide], the EC50 at human ALX receptor was 4.2 nM; on human FPRL2, 1960 nM.

For `COCCNC(=O)[C@H]1[C@H](C(=O)Nc2ccc(Br)cc2)[C@@H]2C=C[C@H]1C21CC1` [Example 31, (5R)—N^5-(4-Bromophenyl)-(6R)—N^6-(2-methoxy-ethyl)-(4S,7R)-[4,7-ethenylene-spiro[2.4]heptane]-5,6-dicarboxamide], the EC50 at human ALX receptor was found to be 5 nM; on human FPRL2, 1410 nM.

In the case of `COCCN(CCOC)C(=O)[C@H]1[C@H](C(=O)Nc2ccc(Br)cc2)[C@@H]2C=C[C@H]1C21CC1` [Example 63, (5R)—N^5-(4-Bromophenyl)-(6R)—N^6,N^6-bis-(2-methoxy-ethyl)-(4S,7R)-[4,7-ethenylene-spiro[2.4]heptane]-5,6-dicarboxamide], the half-maximal effective concentration (EC50) was 24 nM on human ALX receptor and 3950 nM on human FPRL2.

For the origin of these results see patent publication US8563714B2, “Bridged spiro [2.4] heptane derivatives as ALX receptor and/or FPRL2 agonists” (Actelion Pharmaceuticals Ltd., priority 2009, dated 2013).
